Experimental data as given in US20210147812A1, “Method of Preparing Cancer Spheroid and Method of Selecting Colorectal Cancer Patient” (Kyo Diagnostics K.K., priority 2017, published 2021).
Like-named read-outs stand apart in the source and are kept apart here. Values belong to the compound of their own block, whether it stands above or below them.

Legend:
[1] = test system: three luciferase-expressing CRC-TIC spheroid lines (HC21T, HC18T, HC25T); experiment: Chemical library screening of 80 agonists or activators for growth-promoting effects; format: cell-based; details: Homo sapiens, read-out: stimulation of spheroid growth
Procedure: For growth monitoring assays, luciferase-expressing spheroids were cultured in 2-3 wells of a 12-well cell-culture plate. […] The spheroid cells were resuspended in Matrigel, distributed to the wells of 96-well “white” cell-culture plates (Corning; 3 μl per well) on a plate heater at 37° C., and cultured overnight in 100 μl/well of the medium. Spheroids were rinsed with 100 μl/well of PBS, and incubated with 50 μl of 150 μg/ml luciferin in phenol red-free DMEM/F12 medium (Nacalai) for 10 min at room temperature […]. Luminescence was scored using a conventional imaging device (Gel Doc XR+, BioRad). After this initial measurement, spheroids in each well were rinsed with 100 μl of PBS, and cultured in 100 μl of the medium. Luminescence was determined daily or 3 days later. The cell growth rate for each well was estimated as the proportion of photon counts to those on day 1.

[2] = test system: spheroid lines HC6T, HC9T, and HC20T; experiment: Drug sensitivity tests in spheroids (GEI); format: cell-based, human; details: dose-dependent, FIGS. 16A-16C
Procedure: (§1) Luciferase-expressing spheroids were cultured in 2-3 wells of a 12-well cell-culture plate (in 60-90 μl Matrigel). […] From the spheroid solution thus obtained, 300 μl was taken and the cells were resuspended in an equal volume of Matrigel. The spheroid cells in Matrigel were distributed to the wells of 96-well “white” cell-culture plates (Corning; 3 μl per well) on a plate heater at 37° C., and cultured overnight in 100 μl/well of the medium. Spheroids were rinsed with 100 μl/well of PBS, and incubated with 50 μl of 150 μg/ml luciferin in phenol red-free DMEM/F12 medium (Nacalai) for 10 min at room temperature (20-28° C.). Luminescence was scored using a conventional imaging device (Gel Doc XR+, BioRad). After this initial measurement, spheroids in each well were rinsed with 100 μl of PBS, and cultured in 100 μl of the medium. Luminescence was determined on day 1 and day 3. Effects of a drug was determined by obtaining GEI (growth effect index), which is the growth rate of a group treated with the drug compared to a control group (a solvent-treated group). Results were shown using means in three independent experiments each conducted in triplicate.
The spheroid lines shown in Table 3 were used in this example.

[3] = test system: two CRC-TIC spheroid lines (HC18T and HC21T); experiment: Titration experiments, dose-dependent effects on growth (GEI); format: cell-based, human; details: for effect on spheroid growth in titration: at 10 μM
Procedure: Shown are the plots and means of GEI in three independent experiments. Asterisks indicate significant differences from the solvent-only group (P<0.05; analyzed using one-way ANOVA followed by Tukey's post-test).
Shown are the mean GEI±SEM (independent experiments, n=3). Asterisks indicate significant differences from the solvent-only (0 μM) group (P<0.05; analyzed using one-way ANOVA followed by Tukey's post-test).
(§2) Luminescence was determined daily or 3 days later. The cell growth rate for each well was estimated as the proportion of photon counts to those on day 1. Four or six replicates (with similar statistical power) were analyzed for each data point in all experiments except for the chemical compound screening assays.

[4] = test system: CRC spheroids (HC18T, HC21T, and HC52T); experiment: Morphology of spheroids after treatment with cAMP-signaling activators (phase-contrast micrographs); format: cell-based, human; details: 10 μM CV1808, 1 μM NECA, or 1 μM forskolin for five days
HC21T spheroid line = experiment: Titration experiment, growth promotion (GEI); format: cell-based, human
Procedure: as §2

[5] = test system: eleven CRC-TIC spheroid lines and four normal spheroid lines; experiment: Dose-dependent effects of SB431542 on the growth of spheroid lines (GEI); format: cell-based, human
Procedure: Luciferase-expressing cancer and normal spheroids were cultured in the cancer medium and the eL-WRN medium each containing EGF and bFGF, respectively, in the presence of SB431542 at the indicated concentrations. Tested were eleven CRC-TIC spheroid lines (circle) and four normal spheroid lines (square). Shown are the mean GEI of four replicates.
as §2

[6] = test system: HC6T-PDSX and HC20T-PDSX tumors; experiment: Histological examinations of PDSX tumors at day 21 (H&E, Ki67); format: in vivo, nude mice (BALB/c-nu); details: erdafitinib monotherapy group
Procedure: Paraffin-embedded tissues of PDSXs were prepared according to the standard procedures. Sections were stained with H&E or immunostained for Ki67.

HC6T-PDSX mice = experiment: Drug sensitivity tests in PDSX models (tumor volume); format: in vivo, nude mice (BALB/c-nu); details: 21 days; erdafitinib 10 mg/kg orally, cetuximab 250 μg i.p. twice a week
Procedure: Patient-derived spheroids were cultured in a 12-well culture plate to become confluent (4×10^5-4×10^6 cells/plate) and the spheroids were rinsed twice with PBS and placed in a 1.5 ml tube with Matrigel. The volume of the spheroid suspension was adjusted to 100 μl with PBS and the suspension thus obtained was subcutaneously injected into 4-6 week female nude mice (BALB/c-nu) at 1×10^5-9×10^5 cells/mouse.
PDSX mice were subjected to drug-dosing test when the mean estimated tumor volume reached 300 mm^3. Tumor volume (mm^3) was estimated by the following formula: length×width^2/2. We excluded the following kinds of tumors from the tests as outliers; too small (<100 mm^3), spontaneously shrinking, remaining unchanged in size, or deeply implanted and difficult to be measured.
The day of the dosing start was defined as day 0, with the tumor volume of each mouse measured twice a week for 3 weeks (days 0-21).
The relative tumor volume was estimated by calibration to the initial tumor volume on day 0. To evaluate the drug dosing effects, the ratio of tumor volume on day 21 to that on day 0 was compared among the four groups.

[7] = test system: normal colonic epithelial stem cell spheroids; experiment: Drug sensitivity tests in spheroids (GEI); format: cell-based, human; details: concentrations below 1 μM
Procedure: as §1

[8] = test system: CRC-TIC spheroid lines that carried wild-type RAS/RAF genes (HC6T, HC9T, HC11T, HC21T); experiment: Stimulation of spheroid growth with EGF and/or bFGF, luminescence-based growth monitoring (GEI); format: cell-based, human; details: HC6T, HC9T
Procedure: as §2
To investigate whether EGF and bFGF helped spheroid proliferation in the cancer medium as described above, we cultured with EGF and/or bFGF four slow-growing CRC-TIC spheroid lines that carried wild-type RAS/RAF genes (HC6T, HC9T, HC11T, HC21T). Because EGF/bFGF facilitated the growths of these spheroid lines substantially (FIG. 3A), we then quantified their effects by the luminescence-based growth monitoring. To calibrate the effects, we introduced the growth effect index (GEI) defined as the relative growth rate of a treated group to that of its solvent-only control in each paired assay. […] The extents of growth promotion by EGF and bFGF were different depending on the spheroid line. […] In another spheroid line (HC21T), the effects were similar between the two growth factors (FIG. 3B).

Compound: CCCCCCCCc1ccc(-c2ccc(C(=O)O)cc2)cc1 [AC55649, 4′-Octyl-[1,1′-biphenyl]-4-carboxylic acid]
activation at 10 µM ([1]; 10 μM each): > 25%

Compound: CCN1CCN(c2ccc(Nc3cc(N(C)C(=O)Nc4c(Cl)c(OC)cc(OC)c4Cl)ncn3)cc2)CC1 [BGJ398]
growth of spheroid lines (GEI) [2]: suppressed the growth

Compound: C=CC(=O)N[C@H]1CCOC[C@H]1Nc1ncc2cc(-c3c(Cl)c(OC)cc(OC)c3Cl)ccc2n1 [BLU554]
growth of spheroid lines (GEI) [2]: suppressed the growth

Compound: Nc1nc(Nc2ccccc2)nc2c1ncn2[C@@H]1O[C@H](CO)[C@@H](O)[C@H]1O [CV1808, 2-phenylaminoadenosine]
activation at 10 µM ([1]; 10 μM each): > 25% | growth-promoting effect compared with NECA ([3]; dose-dependent, FIG. 9A): growth-promoting effect though weaker than that of NECA | morphological changes in spheroids [4]: cell flattening and increased sphere size

Compound: CCn1c(=O)[nH]c2cc(Cl)c(Cl)cc21 [DCEBIO, 5,6-Dichloro-1-ethyl-1,3-dihydro-2H-benzimidazol-2-one]
activation at 10 µM ([1]; 10 μM each): > 25%

Compound: Cc1cc(SCc2sc(-c3ccc(C(F)(F)F)c(F)c3)nc2C)ccc1OCC(=O)O [GW0742, [4-[[[2-[3-fluoro-4-(trifluoromethyl)phenyl]-4-methyl-5-thiazolyl]methyl]thio]-2-methylphenoxy]-acetic acid]
activation at 10 µM [1]: > 25% | effect on spheroid growth in titration [3]: significant effects

Compound: CC(C)(Sc1ccc(CCN(CCCCC2CCCCC2)C(=O)NC2CCCCC2)cc1)C(=O)O [GW7647, 2-methyl-2-[[4-[2-[[(cyclohexylamino)carbonyl](4-cyclohexylbutyl)amino]ethyl]phenyl]thio]-propanoic acid]
activation at 10 µM ([1]; 10 μM each): > 25%

Compound: CCCc1c(OCCCOc2ccc(OCC(=O)O)cc2)ccc(C(C)=O)c1O [L-165,041, [4-[3-(4-Acetyl-3-hydroxy-2-propylphenoxy)propoxy]phenoxy]acetic acid]
activation at 10 µM ([1]; 10 μM each): > 25%

Compound: CCNC(=O)[C@H]1O[C@@H](n2cnc3c(N)ncnc32)[C@H](O)[C@@H]1O [NECA, 5′-(N-ethyl-carboxamido)-adenosine]
EC50 (HC21T spheroid line): 195 nM | morphological changes in spheroids [4]: cell flattening and increased sphere size

Compound: CN[C@H](CC(=O)O)C(=O)O [NMDA, N-Methyl-D-aspartic acid]
activation at 10 µM [1]: > 25%

Compound: NC(=O)c1ccc(-c2nc(-c3ccc4c(c3)OCO4)c(-c3ccccn3)[nH]2)cc1 [SB431542, 4-[4-(1,3-benzodioxol-5-yl)-5-(2-pyridinyl)-1H-imidazol-2-yl]benzamide]
effect on spheroid growth ([5]; at 10 μM): growth inhibition | effect on cancer versus normal spheroids ([5]; indicated concentrations, FIG. 7A): effects on cancer spheroids were less than those on normal spheroids

Compound: Nc1nc2c(ccc3ccccc32)s1 [SKA-31, Naphtho[1,2-d]thiazol-2-ylamine]
activation at 10 µM ([1]; 10 μM each): > 25% | effect on spheroid growth in titration [3]: significant effects

Compound: COC(=O)C(Cc1ccc(OCCn2c(=O)sc3cc(C(=O)c4ccccc4)ccc32)cc1)C(=O)OC [compound 526948, [[4-[2-(6-Benzoyl-2-oxo-3(2H)-benzothiazolyl)ethoxy]phenyl]methyl]-1,3-propanedioic acid dimethyl ester]
activation at 10 µM ([1]; 10 μM each): > 25%

growth of normal spheroids [7]: hardly suppressed the growth
Compound: COc1cc(OC)cc(N(CCNC(C)C)c2ccc3ncc(-c4cnn(C)c4)nc3c2)c1 [erdafitinib]
tumors that disappeared (complete response) [6]: One of three | growth of spheroid lines (GEI) [2]: suppressed the growth | tumor volume versus control (HC6T-PDSX mice): reduced the tumor volume

Compound: COCc1c(-c2cc3cc(C)cc(OC)c3s2)c2c(N)ncnn2c1CN1CCNC(=O)C1 [rogoratinib]
growth of spheroid lines (GEI) [2]: suppressed the growth

Compound: AZD4547
growth of spheroid lines (GEI) [2]: suppressed the growth

Compound: bFGF: basic fibroblast growth factor, recombinant human protein
extent of growth promotion, bFGF versus EGF [8]: more effective than EGF
